According to ChEMBL document CHEMBL5241069, “A key review on oxadiazole analogs as potential methicillin-resistant Staphylococcus aureus (MRSA) activity: Structure-activity relationship studies” (Eur J Med Chem, 2021):
In brackets after ≈: the same amount, converted by molar mass.

What was measured:
[1] = Cytotoxicity against rat NRK-52E cells assessed as inhibition of cell growth incubated for 24 hrs by CCK-8 assay; type: toxicity, cell-based
Staphylococcus aureus [2] = assay: Antimicrobial activity against methicillin resistant Staphylococcus aureus 1 assessed as inhibition of bacterial growth incubated for 16 to 20 hrs by CLSI protocol based Muller-Hinton broth method; type: functional; conditions: time 16-20 hrs
Staphylococcus aureus [3] = assay: Antimicrobial activity against methicillin resistant Staphylococcus aureus 3 assessed as inhibition of bacterial growth incubated for 16 to 20 hrs by CLSI protocol based Muller-Hinton broth method; type: functional; conditions: time 16-20 hrs
Staphylococcus aureus [4] = assay: Antimicrobial activity against methicillin resistant Staphylococcus aureus 2 assessed as inhibition of bacterial growth incubated for 16 to 20 hrs by CLSI protocol based Muller-Hinton broth method; type: functional; conditions: time 16-20 hrs
Staphylococcus aureus [5] = assay: Antibacterial activity against methicillin resistant Staphylococcus aureus assessed as inhibition zone by CLSI protocol based agar disc diffusion method; type: functional
Staphylococcus aureus [6] = assay: Antimicrobial activity against methicillin resistant Staphylococcus aureus 2658 RCMB assessed as inhibition of bacterial growth incubated for 20 hrs by CLSI protocol based broth microdilution method; type: functional
Staphylococcus aureus [7] = assay: Antimicrobial activity against methicillin resistant Staphylococcus aureus ATCC 25923 assessed as inhibition of bacterial growth by agar diffusion cup plate method; type: functional
Staphylococcus aureus [8] = assay: Antibacterial activity against methicillin resistant Staphylococcus aureus ATCC 33592 incubated for 24 hrs by Mueller-Hinton broth based assay; type: functional
Staphylococcus aureus [9] = assay: Antibacterial activity against methicillin resistant Staphylococcus aureus MW2 assessed as inhibition of bacterial growth incubated for 16 to 20 hrs by CLSI protocol based Mueller-Hinton broth method; type: functional; conditions: time 16-20 hrs
Staphylococcus aureus [10] = assay: Antibacterial activity against methicillin resistant Staphylococcus aureus USA300 assessed as inhibition of bacterial growth incubated for 16 to 20 hrs by CLSI protocol based Mueller-Hinton broth method; type: functional; conditions: time 16-20 hrs
[11] = Cytotoxicity against human HepG2 cells assessed as inhibition of cell growth incubated for 24 hrs by WST-1 assay; type: toxicity, cell-based; conditions: read-out: LD50
Staphylococcus aureus [12] = assay: Antimicrobial activity against methicillin resistant Staphylococcus aureus ATCC 43300 assessed as inhibition of bacterial growth incubated for 18 to 24 hrs by broth microdilution method; type: functional; conditions: time 18-24 hrs
Staphylococcus aureus [13] = assay: Antibacterial activity against methicillin resistant Staphylococcus aureus assessed as inhibition zone by disc diffusion method; type: functional
Staphylococcus aureus [14] = assay: Antibacterial activity against methicillin resistant Staphylococcus aureus MTCC 84 incubated for 24 hrs by serial dilution method; type: functional
Staphylococcus aureus [15] = assay: Antibacterial activity against methicillin resistant Staphylococcus aureus ATCC 43300 assessed as inhibition of bacterial growth incubated for 24 to 48 hrs by spectrophotometric analysis; type: functional; conditions: time 24-48 hrs
Staphylococcus aureus [16] = assay: Antibiofilm activity against methicillin resistant Staphylococcus aureus ATCC 43866 assessed as inhibition of biofilm formation incubated for 18 to 24 hrs by tissue culture plate method; type: functional; conditions: time 18-24 hrs
Staphylococcus aureus [17] = assay: Potency index, ratio of vancomycin MIC to test compound MIC for antibacterial activity against methicillin resistant Staphylococcus aureus ATCC 43866 assessed as inhibition of biofilm formation incubated for 18 to 24 hrs by tissue culture plate method; type: functional; conditions: time 18-24 hrs
Staphylococcus aureus [18] = assay: Antibacterial activity methicillin resistant Staphylococcus aureus 2658 RCMB assessed as inhibition of bacterial growth by broth microdilution method; type: functional
Staphylococcus aureus [19] = assay: Antibacterial activity methicillin resistant Staphylococcus aureus NRS 108 assessed as inhibition of bacterial growth by broth microdilution method; type: functional
Staphylococcus aureus [20] = assay: Antibacterial activity methicillin resistant Staphylococcus aureus NRS 383 (USA 200) assessed as inhibition of bacterial growth by broth microdilution method; type: functional
Staphylococcus aureus [21] = assay: Antibacterial activity methicillin resistant Staphylococcus aureus NRS 119 assessed as inhibition of bacterial growth by broth microdilution method; type: functional; conditions: NRS119
Staphylococcus aureus [22] = assay: Antibacterial activity methicillin resistant Staphylococcus aureus NRS384 (USA 300) assessed as inhibition of bacterial growth by broth microdilution method; type: functional
Staphylococcus aureus [23] = assay: Antibiofilm activity against methicillin resistant Staphylococcus aureus assessed as reduction in biofilm formation at 2 times of MIC by microtiter plate biofilm formation assay; type: functional; design: scale not given: the % may be the effect or the level left
Staphylococcus aureus [24] = assay: Antibacterial activity methicillin resistant Staphylococcus aureus NRS 484 (USA 1100) assessed as inhibition of bacterial growth by broth microdilution method; type: functional
Staphylococcus aureus [25] = assay: Antibacterial activity methicillin resistant Staphylococcus aureus NRS 386 (USA 700) assessed as inhibition of bacterial growth by broth microdilution method; type: functional
[26] = Half-life in rat at 25 mg/kg, po; type: ADME, organism-based; conditions: in vivo
Staphylococcus aureus [27] = assay: Antibacterial activity methicillin resistant Staphylococcus aureus NRS 382 (USA 100) assessed as inhibition of bacterial growth by broth microdilution method; type: functional
Staphylococcus aureus [28] = assay: Antibacterial activity methicillin resistant Staphylococcus aureus NRS 194 assessed as inhibition of bacterial growth by broth microdilution method; type: functional
Staphylococcus aureus [29] = assay: Antibacterial activity methicillin resistant Staphylococcus aureus NRS 385 (USA 500) assessed as inhibition of bacterial growth by broth microdilution method; type: functional
Staphylococcus aureus [30] = assay: Antibacterial activity methicillin resistant Staphylococcus aureus NRS123 (USA 400) assessed as inhibition of bacterial growth by broth microdilution method; type: functional
Staphylococcus aureus [31] = assay: Antibacterial activity methicillin resistant Staphylococcus aureus NRS 483 (USA 1000) assessed as inhibition of bacterial growth by broth microdilution method; type: functional
Staphylococcus aureus [32] = assay: Antibacterial activity methicillin resistant Staphylococcus aureus NRS 387 (USA 800) assessed as inhibition of bacterial growth by broth microdilution method; type: functional
Staphylococcus aureus [33] = assay: Antimicrobial activity against methicillin resistant Staphylococcus aureus USA300 assessed as inhibition of bacterial growth incubated for 16 to 20 hrs by CLSI protocol based method; type: functional; conditions: time 16-20 hrs
Staphylococcus aureus [34] = assay: Antimicrobial activity against methicillin resistant Staphylococcus aureus A252 assessed as inhibition of bacterial growth incubated for 16 to 20 hrs by CLSI protocol based method; type: functional; conditions: time 16-20 hrs
Staphylococcus aureus [35] = assay: Antimicrobial activity against Staphylococcus aureus Newman assessed as inhibition of bacterial growth incubated for 16 to 20 hrs by CLSI protocol based method; type: functional; conditions: time 16-20 hrs

## CCn1cc(C(=O)O)c(=O)c2cc(F)c(N3CCN(Cc4nnc(-c5cccc(OC)c5)o4)CC3)cc21
[1]
  IC50 at 24 h: > 200 µg/mL
Staphylococcus aureus [2]
  MIC: 0.5 µg/mL (≈ 0.985 µM)
Staphylococcus aureus [3]
  MIC: 1 µg/mL (≈ 1.97 µM)
Staphylococcus aureus [4]
  MIC: 0.25 µg/mL (≈ 0.493 µM)

## O=P(Oc1ccccc1)(Oc1ccccc1)C(Nc1nnc(-c2cccc(Br)n2)o1)c1ccc(Cl)c(F)c1 (stereo not drawn)
Staphylococcus aureus [5]
  inhibition zone (IZ): 17 mm

## Cc1nc(-c2ccc3ccccc3c2)sc1-c1nnc(NC(=N)N)o1
Staphylococcus aureus [6]
  MIC: 1.95 µg/mL (≈ 5.56 µM)

## Cc1nnc(-c2ccc(O)cc2)o1
Staphylococcus aureus [7]
  MIC: 25 µg/mL (≈ 142 µM)

## Cc1cc(C(=O)Nc2nnc(-c3ccc(C(F)(F)F)cc3)o2)ccc1S(=O)(=O)N1C[C@H](C)C[C@H](C)C1
Staphylococcus aureus [8]
  MIC: 11 µg/mL (≈ 21.1 µM)

## O=C(Nc1nnc(-c2ccc3c(c2)CCCC3)o1)C1CC1
Staphylococcus aureus [9]
  MBC: 16 µg/mL (≈ 56.5 µM)
Staphylococcus aureus [10]
  MBC: 16 µg/mL (≈ 56.5 µM)
[11]
  CC50 at 24 h: > 32 µg/mL

## O=P(Oc1ccccc1)(Oc1ccccc1)C(Nc1nnc(-c2cccc(Br)n2)o1)c1ccc(F)c(Cl)c1 (stereo not drawn)
Staphylococcus aureus [5]
  inhibition zone (IZ): 17 mm

## O=P(Oc1ccccc1)(Oc1ccccc1)C(Nc1nnc(-c2cccc(Br)n2)o1)c1cccc(F)c1 (stereo not drawn)
Staphylococcus aureus [5]
  inhibition zone (IZ): 17 mm

## CNC(=N)Nc1nnc(-c2sc(-c3ccc4ccccc4c3)nc2C)o1
Staphylococcus aureus [6]
  MIC: 3.9 µg/mL (≈ 10.7 µM)

## C[C@@H]1C[C@H](C)CN(S(=O)(=O)c2ccc(C(=O)Nc3nnc(-c4ccc(C(F)(F)F)cc4)o3)cc2)C1
Staphylococcus aureus [8]
  MIC: 0.25 µg/mL (≈ 0.492 µM)

## CCCCC(=O)Nc1nnc(-c2ccc(Cl)cc2)o1
Staphylococcus aureus [9]
  MBC: 64 µg/mL (≈ 229 µM)
Staphylococcus aureus [10]
  MBC: 8 µg/mL (≈ 28.6 µM)

## Cc1nc(-c2ccc3ccccc3c2)sc1-c1nnc(NC(=N)N2CCNCC2)o1
Staphylococcus aureus [6]
  MIC: 1.95 µg/mL (≈ 4.65 µM)

## GENTAMICIN
Staphylococcus aureus [12]
  MIC: 100 µg/mL

## O=C(O)c1cn(C2CC2)c2cc(N3CCNCC3)c(F)cc2c1=O [CIPROFLOXACIN]
Staphylococcus aureus [13]
  inhibition zone (IZ): 22 mm
Staphylococcus aureus [14]
  MIC: > 100 µg/mL

## O=C(/C=C/c1ccc([N+](=O)[O-])cc1)N1N=C(c2ccncc2)OC1c1cn(-c2ccccc2)nc1-c1ccc(F)cc1 (stereo not drawn)
Staphylococcus aureus [15]
  MIC: 12.5 µg/mL (≈ 22.3 µM)

## Cn1c(-c2nnc(-c3ccc(Cl)cc3Cl)o2)cc(Br)c1Br
Staphylococcus aureus [16]
  MIC: 0.78 µg/mL (≈ 1.73 µM)
Staphylococcus aureus [17]
  Ratio: 4

## Cc1nc(-c2ccc(C(C)(C)C)cc2)sc1-c1nnc(N2CC(O)C2)o1
Staphylococcus aureus [18]
  MIC: 3.12 µg/mL (≈ 8.42 µM)
Staphylococcus aureus [19]
  MIC: 4 µg/mL (≈ 10.8 µM)
Staphylococcus aureus [20]
  MIC: 4 µg/mL (≈ 10.8 µM)
Staphylococcus aureus [21]
  MIC: 4 µg/mL (≈ 10.8 µM)
Staphylococcus aureus [22]
  MIC: 4 µg/mL (≈ 10.8 µM)
Staphylococcus aureus [23]
  Activity: 41%
Staphylococcus aureus [24]
  MIC: 4 µg/mL (≈ 10.8 µM)
Staphylococcus aureus [25]
  MIC: 4 µg/mL (≈ 10.8 µM)
[26]
  half-life: 5.5 h
Staphylococcus aureus [27]
  MIC: 4 µg/mL (≈ 10.8 µM)
Staphylococcus aureus [28]
  MIC: 4 µg/mL (≈ 10.8 µM)
Staphylococcus aureus [29]
  MIC: 4 µg/mL (≈ 10.8 µM)
Staphylococcus aureus [30]
  MIC: 4 µg/mL (≈ 10.8 µM)
Staphylococcus aureus [31]
  MIC: 4 µg/mL (≈ 10.8 µM)
Staphylococcus aureus [32]
  MIC: 4 µg/mL (≈ 10.8 µM)

## O=C(Nc1nnc(-c2ccc(F)cc2)o1)c1cccc(C(F)(F)F)c1
Staphylococcus aureus [33]
  MIC: 0.35 µg/mL (≈ 0.996 µM)
Staphylococcus aureus [34]
  MIC: 0.7 µg/mL (≈ 1.99 µM)
Staphylococcus aureus [35]
  MIC: 0.7 µg/mL (≈ 1.99 µM)

## O=[N+]([O-])c1ccc(C(Nc2nnc(-c3cccc(Br)n3)o2)P(=O)(Oc2ccccc2)Oc2ccccc2)cc1F (stereo not drawn)
Staphylococcus aureus [5]
  inhibition zone (IZ): 17 mm
